Test results reported in PubChem BioAssay AID190 (DTP/NCI, 2004).
Several values for one entry are separate records, joined by “and”; a condition that tells them apart may be missing. Equal values may be shown once. Toxic doses and inconclusive results are not listed.

Tested on: AKR/Lw mice, AKR lymphoma ip, median survival T/C
Test: NCI In Vivo Anticancer Drug Screen. Data for tumor model Lymphoma AKR (Transplanted) (intraperitoneal) in AKR/Lw mice
Details: endpoint: median survival time, higher = longer survival
Description: The antitumor activity of compounds was measured in mice bearing transplantable tumors. Survival or tumor size were measured and the results are expressed as the measurement made in the treated group (T) divided by the measurement made in the vehicle treated control group (C). The tumor model used in this assay is Lymphoma AKR (Transplanted) (intraperitoneal) in AKR/Lw mice

[1] = dose: 200.0 mg/kg/injection, schedule: Q01DX001 (ip), vehicle: saline
[2] = dose: 400.0 mg/kg/injection, schedule: Q01DX001 (ip), vehicle: saline
[3] = dose: 2.5 mg/kg/injection, schedule: Q01DX009 (ip), vehicle: saline
[4] = dose: 5.0 mg/kg/injection, schedule: Q01DX001 (ip), vehicle: saline
[5] = dose: 5.0 mg/kg/injection, schedule: Q01DX009 (ip), vehicle: saline
[6] = dose: 10.0 mg/kg/injection, schedule: Q01DX001 (ip), vehicle: saline
[7] = dose: 20.0 mg/kg/injection, schedule: Q01DX001 (ip), vehicle: saline
[8] = dose: 40.0 mg/kg/injection, schedule: Q01DX001 (ip), vehicle: saline
[9] = dose: 100.0 mg/kg/injection, schedule: Q01DX001 (ip), vehicle: Klucel (hydroxypropylcellulose) (HPC)
[10] = dose: 200.0 mg/kg/injection, schedule: Q01DX001 (ip), vehicle: Klucel (hydroxypropylcellulose) (HPC)
[11] = dose: 400.0 mg/kg/injection, schedule: Q01DX001 (ip), vehicle: Klucel (hydroxypropylcellulose) (HPC)

C[C@]12CCC(=O)C=C1CC[C@@H]1[C@@H]2[C@@H](O)C[C@@]2(C)[C@H]1CC[C@]2(O)C(=O)CO
T/C (dose: 5.0 mg/kg/injection, schedule: Q01DX005 (sc), vehicle: steriod suspending solution): 117 % of control
T/C (dose: 10.0 mg/kg/injection, schedule: Q01DX005 (sc), vehicle: steriod suspending solution): 106 % of control
T/C (dose: 20.0 mg/kg/injection, schedule: Q01DX005 (sc), vehicle: steriod suspending solution): 106 % of control
T/C (dose: 25.0 mg/kg/injection, schedule: Q01DX005 (sc), vehicle: steriod suspending solution): 94 % of control
T/C (dose: 50.0 mg/kg/injection, schedule: Q01DX005 (sc), vehicle: steriod suspending solution): 107 % of control

C1=CC2(OCCO2)C2CC=CC3(OCCO3)C2C1 (configuration not stated)
T/C (dose: 100.0 mg/kg/injection, schedule: Q01DX001 (ip), vehicle: saline): 104 % of control
T/C [1]: 97 % of control
T/C [2]: 95 % of control

CN(Cc1cnc2nc(N)nc(N)c2n1)c1ccc(C(=O)N[C@@H](CCC(=O)O)C(=O)O)cc1
T/C (dose: 0.15 mg/kg/injection, schedule: Q04DX003 (ip), vehicle: saline): 100 % of control
T/C (dose: 0.25 mg/kg/injection, schedule: Q01DX001 (ip), vehicle: saline): 106 % of control
T/C (dose: 0.25 mg/kg/injection, schedule: Q01DX009 (ip), vehicle: saline): 112 % of control
T/C (dose: 0.25 mg/kg/injection, schedule: Q01DX015 (ip), vehicle: saline): 114 % of control and 116 % of control
T/C (dose: 0.3 mg/kg/injection, schedule: Q04DX003 (ip), vehicle: saline): 111 % of control
T/C (dose: 0.5 mg/kg/injection, schedule: Q01DX001 (ip), vehicle: saline): 109 % of control and 117 % of control
T/C (dose: 0.5 mg/kg/injection, schedule: Q04DX008 (ip), vehicle: saline): 116 % of control
T/C (dose: 0.6 mg/kg/injection, schedule: Q04DX003 (ip), vehicle: saline): 98 % of control
T/C (dose: 0.75 mg/kg/injection, schedule: Q01DX009 (ip), vehicle: saline): 112 % of control
T/C (dose: 0.75 mg/kg/injection, schedule: Q04DX003 (ip), vehicle: saline): 87 % of control and 93 % of control and 111 % of control
T/C (dose: 1.0 mg/kg/injection, schedule: Q01DX001 (ip), vehicle: saline): 109 % of control and 115 % of control
T/C (dose: 1.2 mg/kg/injection, schedule: Q01DX009 (ip), vehicle: saline): 91 % of control
T/C (dose: 1.5 mg/kg/injection, schedule: Q01DX001 (ip), vehicle: saline): 89 % of control and 102 % of control
T/C (dose: 1.5 mg/kg/injection, schedule: Q01DX015 (ip), vehicle: saline): 197 % of control
T/C (dose: 2.0 mg/kg/injection, schedule: Q01DX001 (ip), vehicle: saline): 106 % of control and 115 % of control
T/C (dose: 2.0 mg/kg/injection, schedule: Q04DX003 (ip), vehicle: saline): 95 % of control
T/C [3]: 87 % of control and 91 % of control
T/C (dose: 3.0 mg/kg/injection, schedule: Q01DX001 (ip), vehicle: saline): 100 % of control and 114 % of control and 116 % of control
T/C (dose: 4.0 mg/kg/injection, schedule: Q01DX001 (ip), vehicle: saline): 116 % of control
T/C (dose: 4.0 mg/kg/injection, schedule: Q01DX009 (ip), vehicle: saline): 94 % of control
T/C (dose: 4.0 mg/kg/injection, schedule: Q04DX003 (ip), vehicle: saline): 109 % of control
T/C (dose: 4.0 mg/kg/injection, schedule: Q04DX008 (ip), vehicle: saline): 113 % of control
T/C [4]: 114 % of control
T/C [5]: 88 % of control
T/C [6]: 102 % of control and 104 % of control
T/C (dose: 11.0 mg/kg/injection, schedule: Q04DX008 (ip), vehicle: saline): 123 % of control
T/C (dose: 12.0 mg/kg/injection, schedule: Q01DX001 (ip), vehicle: saline): 107 % of control and 111 % of control
T/C (dose: 12.0 mg/kg/injection, schedule: Q04DX003 (ip), vehicle: saline): 93 % of control and 100 % of control
T/C (dose: 16.0 mg/kg/injection, schedule: Q04DX004 (ip), vehicle: saline): 93 % of control
T/C [7]: 102 % of control
T/C (dose: 24.0 mg/kg/injection, schedule: Q04DX003 (ip), vehicle: saline): 94 % of control
T/C (dose: 24.0 mg/kg/injection, schedule: Q04DX004 (ip), vehicle: saline): 115 % of control
T/C [8]: 108 % of control

C1CC2CCC[N+]3=C2C(C1)CCC3 (configuration not stated)
T/C (dose: 12.5 mg/kg/injection, schedule: Q01DX001 (ip), vehicle: saline): 100 % of control
T/C (dose: 25.0 mg/kg/injection, schedule: Q01DX001 (ip), vehicle: saline): 100 % of control
T/C (dose: 50.0 mg/kg/injection, schedule: Q01DX001 (ip), vehicle: saline): 108 % of control

O=C1CSC(=S)N1c1ccco1
T/C (dose: 25.0 mg/kg/injection, schedule: Q04DX003 (ip), vehicle: Klucel (hydroxypropylcellulose) (HPC)): 109 % of control
T/C (dose: 50.0 mg/kg/injection, schedule: Q01DX009 (ip), vehicle: Klucel (hydroxypropylcellulose) (HPC)): 97 % of control
T/C (dose: 50.0 mg/kg/injection, schedule: Q04DX003 (ip), vehicle: Klucel (hydroxypropylcellulose) (HPC)): 92 % of control
T/C [9]: 103 % of control
T/C (dose: 100.0 mg/kg/injection, schedule: Q01DX009 (ip), vehicle: Klucel (hydroxypropylcellulose) (HPC)): 95 % of control
T/C (dose: 100.0 mg/kg/injection, schedule: Q04DX003 (ip), vehicle: Klucel (hydroxypropylcellulose) (HPC)): 90 % of control
T/C [10]: 96 % of control
T/C (dose: 200.0 mg/kg/injection, schedule: Q01DX009 (ip), vehicle: Klucel (hydroxypropylcellulose) (HPC)): 102 % of control
T/C (dose: 200.0 mg/kg/injection, schedule: Q04DX003 (ip), vehicle: Klucel (hydroxypropylcellulose) (HPC)): 88 % of control

O=[N+]([O-])O.[Ga]
T/C (dose: 1.25 mg/kg/injection, schedule: Q01DX001 (ip), vehicle: saline): 102 % of control
T/C (dose: 2.5 mg/kg/injection, schedule: Q01DX001 (ip), vehicle: saline): 102 % of control
T/C [3]: 114 % of control
T/C (dose: 2.5 mg/kg/injection, schedule: Q04DX003 (ip), vehicle: saline): 87 % of control
T/C (dose: 3.1 mg/kg/injection, schedule: Q01DX001 (ip), vehicle: saline): 105 % of control
T/C [4]: 102 % of control
T/C [5]: 91 % of control and 100 % of control
T/C (dose: 5.0 mg/kg/injection, schedule: Q04DX003 (ip), vehicle: saline): 93 % of control and 108 % of control
T/C (dose: 6.2 mg/kg/injection, schedule: Q01DX001 (ip), vehicle: saline): 94 % of control
T/C (dose: 6.2 mg/kg/injection, schedule: Q04DX003 (ip), vehicle: saline): 102 % of control
T/C (dose: 7.5 mg/kg/injection, schedule: Q01DX009 (ip), vehicle: saline): 86 % of control
T/C (dose: 8.0 mg/kg/injection, schedule: Q01DX009 (ip), vehicle: saline): 100 % of control
T/C [6]: 92 % of control and 105 % of control
T/C (dose: 10.0 mg/kg/injection, schedule: Q01DX009 (ip), vehicle: saline): 97 % of control and 111 % of control
T/C (dose: 10.0 mg/kg/injection, schedule: Q04DX003 (ip), vehicle: saline): 87 % of control and 108 % of control
T/C (dose: 12.5 mg/kg/injection, schedule: Q01DX009 (ip), vehicle: saline): 105 % of control
T/C (dose: 12.5 mg/kg/injection, schedule: Q04DX003 (ip), vehicle: saline): 102 % of control
T/C [7]: 105 % of control
T/C (dose: 20.0 mg/kg/injection, schedule: Q01DX009 (ip), vehicle: saline): 94 % of control and 102 % of control
T/C (dose: 20.0 mg/kg/injection, schedule: Q04DX003 (ip), vehicle: saline): 93 % of control and 106 % of control
T/C (dose: 25.0 mg/kg/injection, schedule: Q01DX009 (ip), vehicle: saline): 88 % of control and 105 % of control
T/C (dose: 25.0 mg/kg/injection, schedule: Q04DX003 (ip), vehicle: saline): 94 % of control
T/C [8]: 105 % of control
T/C (dose: 50.0 mg/kg/injection, schedule: Q01DX009 (ip), vehicle: saline): 105 % of control and 110 % of control and 113 % of control
T/C (dose: 64.0 mg/kg/injection, schedule: Q04DX003 (ip), vehicle: water): 116 % of control
T/C (dose: 500.0 mg/kg/injection, schedule: Q01DX001 (ip), vehicle: saline): 88 % of control and 95 % of control

O=c1cc(-c2ccccc2)nc(Nc2nc3ccc([N+](=O)[O-])cc3[nH]2)[nH]1
T/C [9]: 96 % of control
T/C [10]: 110 % of control
T/C [11]: 96 % of control

CCCCCCCC(=O)NCCCC
T/C [9]: 96 % of control
T/C [10]: 96 % of control
T/C [11]: 92 % of control

CCOC(=O)CCCSCCCC(=O)OCC
T/C [1]: 89 % of control
T/C [2]: 95 % of control
